Target: PD-1/PD-L1 (Homo sapiens, UniProt Q9NZQ7)
Test: TR-FRET PD-1/PD-L1 binding inhibition at the molecular level (free proteins)
Conditions: Tag1-PD-L1 and Tag2-PD-1 proteins, twelve concentrations from 200 nM, 2 hours at room temperature, read-out: FRET assay (IC50)
Outline: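 HTRF read-out at 665/620 nm after 2 h at room temperature. Detection used anti-Tag1 Eu cryptate plus anti-Tag2 XL665 antibodies. Tagged PD-L1 and PD-1 proteins were pre-mixed with compound across twelve […] 1:2 dilutions starting at 200 nM.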

PD-1/PD-L1, sequence (Q9NZQ7 19-238 limits assumed): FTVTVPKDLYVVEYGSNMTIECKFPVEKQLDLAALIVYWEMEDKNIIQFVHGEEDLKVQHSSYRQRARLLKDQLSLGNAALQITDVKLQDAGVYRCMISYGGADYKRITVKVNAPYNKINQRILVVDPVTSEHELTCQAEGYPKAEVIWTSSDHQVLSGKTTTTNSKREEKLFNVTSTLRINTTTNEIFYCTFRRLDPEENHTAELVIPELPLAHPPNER

| SMILES | IC50 [µM] |
| --- | --- |
| Cc1c(NC(=O)c2cc3n(n2)CCN(CCO)C3)cccc1-c1cccc(Nc2nc(C(F)F)nc3cc(CN4CC[C@@H](O)C4)cnc23)c1C [Compound 327, (R)-N-(3'-((2-(difluoromethyl)-7-((3-hydroxypyrrolidin-1-yl)methyl)pyrido[3,2-d]pyrimidin-4-yl)amino)-2,2'-dimethyl-[1,1'-biphenyl]-3-yl)-5-(2-hydroxyethyl)-4,5,6,7-tetrahydropyrazolo[1,5-a]pyrazine-2-carboxamide] | < 0.01 |
| Cc1c(NC(=O)c2cc3n(n2)CCN(CC(=O)O)C3)cccc1-c1cccc(Nc2nc(C(F)F)nc3cc(CN4CC[C@@H](O)C4)cnc23)c1C [Compound 328, (R)-2-(2-((3'-((2-(difluoromethyl)-7-((3-hydroxypyrrolidin-1-yl)methyl)pyrido[3,2-d]pyrimidin-4-yl)amino)-2,2'-dimethyl-[1,1'-biphenyl]-3-yl)carbamoyl)-6,7-dihydropyrazolo[1,5-a]pyrazin-5(4H)-yl)acetic acid] | < 0.01 |
| O=C(Nc1cccc(-c2cccc(Nc3nc(C(F)(F)F)nc4cccnc34)c2Cl)c1Cl)c1cc2n(n1)CCC[C@@H]2N1CC[C@@H](O)C1 [Compound 333, (S)-N-(2,2'-dichloro-3'-((2-(trifluoromethyl)pyrido[3,2-d]pyrimidin-4-yl)amino)-[1,1'-biphenyl]-3-yl)-4-((R)-3-hydroxypyrrolidin-1-yl)-4,5,6,7-tetrahydropyrazolo[1,5-a]pyridine-2-carboxamide] | 0.01 to 0.1 |
| O=C(Nc1cccc(-c2cccc(Nc3nc(C(F)(F)F)nc4cccnc34)c2Cl)c1Cl)c1cc2n(n1)CCC[C@H]2N1CC[C@@H](O)C1 [Compound 334, (R)-N-(2,2'-dichloro-3'-((2-(trifluoromethyl)pyrido[3,2-d]pyrimidin-4-yl)amino)-[1,1'-biphenyl]-3-yl)-4-((R)-3-hydroxypyrrolidin-1-yl)-4,5,6,7-tetrahydropyrazolo[1,5-a]pyridine-2-carboxamide] | 0.01 to 0.1 |
| COc1cc(/C(F)=C/c2cccc(-c3cccc(NC(=O)c4cc5n(n4)CCC[C@@H]5N4CC[C@@H](O)C4)c3Cl)c2Cl)ncc1CN1CC[C@@H](O)C1 [Compound 335, (S)-N-(2,2'-dichloro-3'-((Z)-2-fluoro-2-(5-(((R)-3-hydroxypyrrolidin-1-yl)methyl)-4-methoxypyridin-2-yl)vinyl)-[1,1'-biphenyl]-3-yl)-4-((R)-3-hydroxypyrrolidin-1-yl)-4,5,6,7-tetrahydropyrazolo[1,5-a]pyridine-2-carboxamide] | 0.01 to 0.1 |
| O=C(Nc1cccc(-c2cccc(Nc3nc(C(F)(F)F)nc4cc(CN5CC[C@@H](O)C5)cnc34)c2Cl)c1Cl)c1cc2n(n1)CCC[C@@H]2N1CCC(C(=O)O)CC1 [Compound 336, 1-((S)-2-((2,2'-dichloro-3'-((7-(((R)-3-hydroxypyrrolidin-1-yl)methyl)-2-(trifluoromethyl)pyrido[3,2-d]pyrimidin-4-yl)amino)-[1,1'-biphenyl]-3-yl)carbamoyl)-4,5,6,7-tetrahydropyrazolo[1,5-a]pyridin-4-yl)piperidine-4-carboxylic acid] | 0.01 to 0.1 |
| O=C(Nc1cccc(-c2cccc(Nc3nc(C(F)(F)F)nc4cc(CN5CC[C@@H](O)C5)cnc34)c2Cl)c1Cl)c1cc2n(n1)CCC[C@H]2N1CCC(C(=O)O)CC1 [Compound 337] | 0.01 to 0.1 |
| O=C(Nc1cccc(-c2cccc(Nc3nc(C(F)(F)F)nc4cc(CN5CC[C@@H](O)C5)cnc34)c2Cl)c1Cl)c1cc2n(n1)CCC[C@@H]2N1CC[C@@H](O)C1 [Compound 338, (S)-N-(2,2'-dichloro-3'-((7-(((R)-3-hydroxypyrrolidin-1-yl)methyl)-2-(trifluoromethyl)pyrido[3,2-d]pyrimidin-4-yl)amino)-[1,1'-biphenyl]-3-yl)-4-((R)-3-hydroxypyrrolidin-1-yl)-4,5,6,7-tetrahydropyrazolo[1,5-a]pyridine-2-carboxamide] | 0.01 to 0.1 |
| O=C(Nc1cccc(-c2cccc(Nc3nc(C(F)(F)F)nc4cc(CN5CC[C@@H](O)C5)cnc34)c2Cl)c1Cl)c1cc2n(n1)CCC[C@H]2N1CC[C@@H](O)C1 [Compound 339, (R)-N-(2,2'-dichloro-3'-((7-(((R)-3-hydroxypyrrolidin-1-yl)methyl)-2-(trifluoromethyl)pyrido[3,2-d]pyrimidin-4-yl)amino)-[1,1'-biphenyl]-3-yl)-4-((R)-3-hydroxypyrrolidin-1-yl)-4,5,6,7-tetrahydropyrazolo[1,5-a]pyridine-2-carboxamide] | 0.01 to 0.1 |
| CC(C)(N[C@H]1CCCn2nc(C(=O)Nc3cccc(-c4cccc(Nc5nc(C(F)(F)F)nc6cc(CN7CC[C@@H](O)C7)cnc56)c4Cl)c3Cl)cc21)C(=O)O [Compound 340, 2-(((S)-2-((2,2'-dichloro-3'-((7-(((R)-3-hydroxypyrrolidin-1-yl)methyl)-2-(trifluoromethyl)pyrido[3,2-d]pyrimidin-4-yl)amino)-[1,1'-biphenyl]-3-yl)carbamoyl)-4,5,6,7-tetrahydropyrazolo[1,5-a]pyridin-4-yl)amino)-2-methylpropanoic acid] | 0.01 to 0.1 |
| CC(C)(N[C@@H]1CCCn2nc(C(=O)Nc3cccc(-c4cccc(Nc5nc(C(F)(F)F)nc6cc(CN7CC[C@@H](O)C7)cnc56)c4Cl)c3Cl)cc21)C(=O)O [Compound 341, 2-(((R)-2-((2,2'-dichloro-3'-((7-(((R)-3-hydroxypyrrolidin-1-yl)methyl)-2-(trifluoromethyl)pyrido[3,2-d]pyrimidin-4-yl)amino)-[1,1'-biphenyl]-3-yl)carbamoyl)-4,5,6,7-tetrahydropyrazolo[1,5-a]pyridin-4-yl)amino)-2-methylpropanoic acid] | 0.01 to 0.1 |
| Cc1c(NC(=O)c2cc3n(n2)CCC[C@@H]3N2CCC(C(=O)O)CC2)cccc1-c1cccc(Nc2nc(C(F)(F)F)nc3cc(CN4CC[C@@H](O)C4)cnc23)c1C [Compound 342, 1-((S)-2-((3'-((7-(((R)-3-hydroxypyrrolidin-1-yl)methyl)-2-(trifluoromethyl)pyrido[3,2-d]pyrimidin-4-yl)amino)-2,2'-dimethyl-[1,1'-biphenyl]-3-yl)carbamoyl)-4,5,6,7-tetrahydropyrazolo[1,5-a]pyridin-4-yl)piperidine-4-carboxylic acid] | 0.01 to 0.1 |
| Cc1c(NC(=O)c2cc3n(n2)CCC[C@@H]3N2CC[C@@H](O)C2)cccc1-c1cccc(Nc2nc(C(F)(F)F)nc3cc(CN4CC[C@@H](O)C4)cnc23)c1C [Compound 344] | 0.01 to 0.1 |
| Cc1c(NC(=O)c2cc3n(n2)CCC[C@H]3N2CC[C@@H](O)C2)cccc1-c1cccc(Nc2nc(C(F)(F)F)nc3cc(CN4CC[C@@H](O)C4)cnc23)c1C [Compound 345] | 0.01 to 0.1 |
| CN[C@H]1CCCn2nc(C(=O)Nc3cccc(-c4cccc(Nc5nccc6cc(CN7CC[C@@H](O)C7)cnc56)c4C)c3C)cc21 [Compound 346, (S)-N-(3'-((3-(((R)-3-hydroxypyrrolidin-1-yl)methyl)-1,7-naphthyridin-8-yl)amino)-2,2'-dimethyl-[1,1'-biphenyl]-3-yl)-4-(methylamino)-4,5,6,7-tetrahydropyrazolo[1,5-a]pyridine-2-carboxamide] | < 0.01 |
| CN[C@@H]1CCCn2nc(C(=O)Nc3cccc(-c4cccc(Nc5nccc6cc(CN7CC[C@@H](O)C7)cnc56)c4C)c3C)cc21 [Compound 347, (R)-N-(3'-((3-(((R)-3-hydroxypyrrolidin-1-yl)methyl)-1,7-naphthyridin-8-yl)amino)-2,2'-dimethyl-[1,1'-biphenyl]-3-yl)-4-(methylamino)-4,5,6,7-tetrahydropyrazolo[1,5-a]pyridine-2-carboxamide] | < 0.01 |
| CN[C@H]1CCCn2nc(C(=O)Nc3cccc(-c4cccc(NC(=O)c5ccc(CN6CC[C@@H](O)C6)cn5)c4C)c3C)cc21 [Compound 348, (S)-N-(3'-(5-(((R)-3-hydroxypyrrolidin-1-yl)methyl)picolinamido)-2,2'-dimethyl-[1,1'-biphenyl]-3-yl)-4-(methylamino)-4,5,6,7-tetrahydropyrazolo[1,5-a]pyridine-2-carboxamide] | < 0.01 |
| CN[C@@H]1CCCn2nc(C(=O)Nc3cccc(-c4cccc(NC(=O)c5ccc(CN6CC[C@@H](O)C6)cn5)c4C)c3C)cc21 [Compound 349, (R)-N-(3'-(5-(((R)-3-hydroxypyrrolidin-1-yl)methyl)picolinamido)-2,2'-dimethyl-[1,1'-biphenyl]-3-yl)-4-(methylamino)-4,5,6,7-tetrahydropyrazolo[1,5-a]pyridine-2-carboxamide] | 0.01 to 0.1 |
| CN[C@H]1CCCn2nc(C(=O)Nc3cccc(-c4cccc(NC(=O)c5ccc(CN6CC[C@@H](O)C6)cn5)c4Cl)c3Cl)cc21 [Compound 350, (S)-N-(2,2'-dichloro-3'-(5-(((R)-3-hydroxypyrrolidin-1-yl)methyl)picolinamido)-[1,1'-biphenyl]-3-yl)-4-(methylamino)-4,5,6,7-tetrahydropyrazolo[1,5-a]pyridine-2-carboxamide] | 0.01 to 0.1 |
| CN[C@@H]1CCCn2nc(C(=O)Nc3cccc(-c4cccc(NC(=O)c5ccc(CN6CC[C@@H](O)C6)cn5)c4Cl)c3Cl)cc21 [Compound 351, (R)-N-(2,2'-dichloro-3'-(5-(((R)-3-hydroxypyrrolidin-1-yl)methyl)picolinamido)-[1,1'-biphenyl]-3-yl)-4-(methylamino)-4,5,6,7-tetrahydropyrazolo[1,5-a]pyridine-2-carboxamide] | 0.01 to 0.1 |
| CN[C@H]1CCCn2nc(C(=O)Nc3cccc(-c4cccc(Nc5nc(C(F)(F)F)nc6cc(CN7CC[C@@H](O)C7)cnc56)c4Cl)c3Cl)cc21 [Compound 352, (S)-N-(2,2'-dichloro-3'-((7-(((R)-3-hydroxypyrrolidin-1-yl)methyl)-2-(trifluoromethyl)pyrido[3,2-d]pyrimidin-4-yl)amino)-[1,1'-biphenyl]-3-yl)-4-(methylamino)-4,5,6,7-tetrahydropyrazolo[1,5-a]pyridine-2-carboxamide] | 0.01 to 0.1 |
